# Measurements from patent US12485102B2, “Methods and compositions for treating cancer” (The Wistar Institute of Anatomy and Biology, priority 2017, dated 2025).
# Columns and labels:
# [1] = test system: CD8+ T cells from OT-1 mice; test: Phenotype, gene expression, fatty acid uptake and effector functions of drug-treated OT-1 CD8+ T cells in vitro
# Description: We initially tested stimulation of OT-1 T cells by the polyclonal activators anti-CD3 and anti-CD28 or by their cognate peptide [sequence] and IL-2.
# B16OVA tumor cells = test: Adoptive transfer of drug-pre-treated OT-1 cells into B16OVA tumor-bearing mice: tumor progression; conditions: cells treated with 100 μM of FFA, last 2 days; n=5/group
# Description: The cells were then treated for 2 days with 50 μM fenofibric acid or DMSO. Cells were injected i.v. into C57B1/6 recipient mice that had been injected 5 days earlier with B16OVA tumor cells. Tumor sizes were monitored. Tumor weights were measured at necropsy.
# Mice were injected with 10^5 B16.F10 melanoma cells that were transduced to express the immunodominant epitope of ovalbumin [sequence]
# Tumor growth in the mouse models was monitored for up to 24 days.
# To assess how metabolic reprogramming affects tumor antigen-specific CD8+ T cells within a TME, mice were challenged with B16OVA tumor cells. […] Tumor progression was monitored and once tumors became large, splenocytes and tumor-infiltrating cells were isolated and characterized.
# In another experiment, we treated cells with 100 μM of FFA (or as a control DMSO) for the last 2 days of culture. […] We analyzed tumor weights and splenocytes and tumor infiltrating lymphocytes (TILs) at necropsy for recovery, phenotypes, and functions of the donor OT-1 cells.
# [2] = test system: CD8+ T cells from OT-1 mice; test: Cell recovery and blast formation of in vitro stimulated, drug-treated OT-1 CD8+ T cells; type: cell-based
# [3] = test system: CD8+ T cells from OT-1 mice; test: Seahorse oxygen consumption rates (OXPHOS) of drug-treated OT-1 CD8+ T cells; type: cell-based; conditions: 10 or 100 μM, last 2 days of culture; FIG. 10
# Description: They were then analyzed for oxygen consumption rates (OCR) by Seahorse (left graph). In addition, after culture all live cells, CD8+ cells and activated CD44+CD8+ cells were counted to assess potential toxicity.
# Seahorse experiments were conducted to further characterize the effects of FF on CD8+ T cell metabolism.
# Cells were treated with 10 or 100 μM of FFA or FFP for the last 2 days of culture. […] See, FIG. 9. Both drugs increased OXPHOS as shown by increased oxygen consumption rates.
compound,measurement,setting,value
"CC(C)OC(=O)C(C)(C)Oc1ccc(C(=O)c2ccc(Cl)cc2)cc1 [FF, fenofibrate]",T cell proliferation in response to IL-2,[1]; FF-treated cells,no effect
"CC(C)(Oc1ccc(C(=O)c2ccc(Cl)cc2)cc1)C(=O)O [FFA, fenofibric acid]",mice that developed progressing tumors,B16OVA tumor cells,2 mice
same,mice with only small tumors that failed to grow,B16OVA tumor cells,3 mice
same,toxicity in the in vitro or ex vivo pretreatment of the T cells,"[2]; compared with fenofibrate, FIG. 8",reduced toxicity
"C[C@H](NC(=O)C(C)(C)Oc1ccc(C(=O)c2ccc(Cl)cc2)cc1)C(=O)N[C@@H](CCC(=O)O)C(=O)O [FFP, (S)-2-((S)-2-(2-(4-(4-chlorobenzoyl)phenoxy)-2-methylpropanamido)propanamido)pentanedioic acid]",oxygen consumption rates (OXPHOS),[3],increased
same,fatty acid uptake,"[1]; 10 or 100 μM, last 2 days of culture",more pronounced
same,blast formation,"[2]; 100 μM, last 2 days of culture, FIG. 9",reduced blast formation
